Reference: PubChem BioAssay (NCI)
Where “and” joins values, the source holds several entries; their conditions need not be identical. Equal values may be shown once.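 Five compound concentrations were applied to cells in 96-well plates for 48 hours; endpoints were derived by simple linear interpolation of the resulting dose-response curve. GI50 is the concentration that inhibits growth by half. TGI marks complete inhibition of growth.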

Experiments:
Experiment in all cases: DTP human tumour cell line panel, 48 h
UACC-62 melanoma = system: UACC-62 melanoma
NCI-H226 lung = system: NCI-H226 lung
MOLT-4 leukemia = system: MOLT-4 leukemia
HOP-62 NSCLC = system: HOP-62 NSCLC
SR leukemia = system: SR leukemia
OVCAR-8 ovarian = system: OVCAR-8 ovarian
MDA-N = system: MDA-N
NCI-H23 lung = system: NCI-H23 lung
SN12C renal = system: SN12C renal
HT29 colon = system: HT29 colon
M14 melanoma = system: M14 melanoma
TK-10 renal = system: TK-10 renal
ACHN renal = system: ACHN renal
MDA-MB-435 = system: MDA-MB-435
MCF7 breast = system: MCF7 breast
NCI/ADR-RES ovarian = system: NCI/ADR-RES ovarian
KM12 colon = system: KM12 colon
IGROV1 ovarian = system: IGROV1 ovarian
SF-295 CNS = system: SF-295 CNS
HCC-2998 colon = system: HCC-2998 colon
K-562 leukemia = system: K-562 leukemia
HCT-116 colon = system: HCT-116 colon
MDA-MB-231 breast = system: MDA-MB-231 breast
DU-145 prostate = system: DU-145 prostate
HS 578T breast = system: HS 578T breast
A498 renal = system: A498 renal
U251 CNS = system: U251 CNS
OVCAR-3 ovarian = system: OVCAR-3 ovarian
CCRF-CEM leukemia = system: CCRF-CEM leukemia
HOP-92 NSCLC = system: HOP-92 NSCLC
NCI-H460 lung = system: NCI-H460 lung
SW-620 colon = system: SW-620 colon
A549 NSCLC = system: A549 NSCLC
HL-60(TB) leukemia = system: HL-60(TB) leukemia
EKVX NSCLC = system: EKVX NSCLC
MALME-3M melanoma = system: MALME-3M melanoma
SF-539 CNS = system: SF-539 CNS
HCT-15 colon = system: HCT-15 colon
BT-549 breast = system: BT-549 breast
UO-31 renal = system: UO-31 renal
SK-MEL-5 melanoma = system: SK-MEL-5 melanoma
SF-268 CNS = system: SF-268 CNS
PC-3 prostate = system: PC-3 prostate
SK-MEL-2 melanoma = system: SK-MEL-2 melanoma
786-0 renal = system: 786-0 renal
RXF 393 renal = system: RXF 393 renal
SK-OV-3 ovarian = system: SK-OV-3 ovarian
OVCAR-5 ovarian = system: OVCAR-5 ovarian
T-47D breast = system: T-47D breast
SNB-19 CNS = system: SNB-19 CNS
SK-MEL-28 melanoma = system: SK-MEL-28 melanoma

## CN1C2CC(C#N)C1C=CC2=O (stereo not given)
UACC-62 melanoma
  GI50: 27.7 µM and 63.2 µM
  TGI: > 100 µM
NCI-H226 lung
  GI50: 24 µM and > 100 µM
  TGI: 59.6 µM and > 100 µM
MOLT-4 leukemia
  GI50: 15.7 µM and > 100 µM
  TGI: 68.7 µM and > 100 µM
HOP-62 NSCLC
  GI50: 27.6 µM and > 100 µM
  TGI: 85.1 µM and > 100 µM
SR leukemia
  GI50: 24.2 µM and 86.1 µM
  TGI: > 100 µM
OVCAR-8 ovarian
  GI50: 24.5 µM and > 100 µM
  TGI: 70.9 µM and > 100 µM
MDA-N
  GI50: 19.2 µM and 63.3 µM
  TGI: 43.1 µM and > 100 µM
NCI-H23 lung
  GI50: 16.2 µM and 60.1 µM
  TGI: 48.6 µM and > 100 µM
SN12C renal
  GI50: > 100 µM
  TGI: > 100 µM
HT29 colon
  GI50: 17.5 µM and 83.8 µM
  TGI: 59.5 µM and > 100 µM
M14 melanoma
  GI50: 15.9 µM and > 100 µM
  TGI: 30.7 µM and > 100 µM
TK-10 renal
  GI50: 40.5 µM and > 100 µM
  TGI: > 100 µM
ACHN renal
  GI50: 22.8 µM and > 100 µM
  TGI: 76.9 µM and > 100 µM
MDA-MB-435
  GI50: 16.9 µM and 89.2 µM
  TGI: 36.7 µM and > 100 µM
MCF7 breast
  TGI: > 100 µM
NCI/ADR-RES ovarian
  GI50: 25.7 µM and > 100 µM
  TGI: 82.9 µM and > 100 µM
KM12 colon
  GI50: 16.9 µM and 88.2 µM
  TGI: 33.5 µM and > 100 µM
IGROV1 ovarian
  GI50: 42.8 µM and > 100 µM
  TGI: > 100 µM
SF-295 CNS
  TGI: 19.1 µM and > 100 µM
HCC-2998 colon
  GI50: 19.5 µM and > 100 µM
  TGI: 51.8 µM and > 100 µM
K-562 leukemia
  GI50: 14 µM and 78.1 µM
  TGI: 90.2 µM and > 100 µM
HCT-116 colon
  GI50: 13.4 µM and 43.8 µM
  TGI: 27.2 µM and > 100 µM
MDA-MB-231 breast
  GI50: 19.7 µM and > 100 µM
  TGI: 40.7 µM and > 100 µM
DU-145 prostate
  GI50: 22.8 µM and 58.9 µM
  TGI: 61.1 µM and > 100 µM
HS 578T breast
  GI50: 35.4 µM and > 100 µM
  TGI: > 100 µM
A498 renal
  GI50: 17.5 µM and > 100 µM
  TGI: 35 µM and > 100 µM
U251 CNS
  GI50: 12.4 µM and 72.1 µM
  TGI: 61.5 µM and > 100 µM
OVCAR-3 ovarian
  GI50: 15.5 µM and > 100 µM
  TGI: 30.7 µM and > 100 µM
CCRF-CEM leukemia
  TGI: 29.9 µM and > 100 µM
HOP-92 NSCLC
  GI50: 14.5 µM and 62.3 µM
  TGI: 31.4 µM and > 100 µM
NCI-H460 lung
  GI50: 15.8 µM and 73.2 µM
  TGI: 32.4 µM and > 100 µM
SW-620 colon
  GI50: 15.1 µM and 72.5 µM
  TGI: 43.7 µM and > 100 µM
A549 NSCLC
  GI50: 18.1 µM and > 100 µM
  TGI: 46 µM and > 100 µM
HL-60(TB) leukemia
  TGI: 53.4 µM and > 100 µM
EKVX NSCLC
  GI50: 14.7 µM and 62.1 µM
  TGI: 28 µM and > 100 µM
MALME-3M melanoma
  GI50: 14.8 µM and 96.6 µM
  TGI: 31.4 µM and > 100 µM
SF-539 CNS
  GI50: 18.6 µM and > 100 µM
  TGI: 43.2 µM and > 100 µM
HCT-15 colon
  GI50: 13.6 µM and > 100 µM
  TGI: 40.7 µM and > 100 µM
BT-549 breast
  GI50: 38.7 µM and > 100 µM
  TGI: 75.1 µM and > 100 µM
UO-31 renal
  GI50: 11.4 µM and > 100 µM
  TGI: 24.1 µM and > 100 µM
SK-MEL-5 melanoma
  GI50: > 100 µM
  TGI: > 100 µM
SF-268 CNS
  GI50: 27.2 µM and > 100 µM
  TGI: > 100 µM
PC-3 prostate
  GI50: 26.3 µM and > 100 µM
  TGI: 92.1 µM and > 100 µM
SK-MEL-2 melanoma
  TGI: 51.4 µM and > 100 µM
786-0 renal
  GI50: 17.4 µM and > 100 µM
  TGI: 42.6 µM and > 100 µM
RXF 393 renal
  GI50: 16.7 µM and > 100 µM
  TGI: 36.1 µM and > 100 µM
SK-OV-3 ovarian
  TGI: 62.4 µM and > 100 µM
OVCAR-5 ovarian
  GI50: 19.6 µM and > 100 µM
  TGI: 37.3 µM and > 100 µM
T-47D breast
  GI50: 17.5 µM and > 100 µM
  TGI: 45.1 µM and > 100 µM
SNB-19 CNS
  TGI: > 100 µM
SK-MEL-28 melanoma
  GI50: 17.8 µM and > 100 µM
  TGI: 36.7 µM and > 100 µM
